SMILES strings stand for the structures.

In the assay the target is T1, hFXR (Homo sapiens, UniProt Q96RI1).
T1 construct: expressed in transfected cells; host or cells: CV-1 cells
T1 sequence (Q96RI1 1-486): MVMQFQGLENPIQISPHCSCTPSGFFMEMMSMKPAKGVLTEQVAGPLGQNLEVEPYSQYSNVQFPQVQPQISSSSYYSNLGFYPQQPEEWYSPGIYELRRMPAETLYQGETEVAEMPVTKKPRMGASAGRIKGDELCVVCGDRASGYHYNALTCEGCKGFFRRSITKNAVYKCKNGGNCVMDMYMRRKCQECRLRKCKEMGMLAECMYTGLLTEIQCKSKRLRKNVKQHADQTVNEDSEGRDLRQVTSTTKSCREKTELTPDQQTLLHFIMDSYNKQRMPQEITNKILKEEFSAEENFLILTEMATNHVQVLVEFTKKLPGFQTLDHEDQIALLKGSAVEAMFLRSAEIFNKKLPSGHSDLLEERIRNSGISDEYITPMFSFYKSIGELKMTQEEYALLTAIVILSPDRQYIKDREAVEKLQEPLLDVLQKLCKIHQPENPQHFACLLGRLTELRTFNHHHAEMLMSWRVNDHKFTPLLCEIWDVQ
T1 sequence (P19793 1-462 partner): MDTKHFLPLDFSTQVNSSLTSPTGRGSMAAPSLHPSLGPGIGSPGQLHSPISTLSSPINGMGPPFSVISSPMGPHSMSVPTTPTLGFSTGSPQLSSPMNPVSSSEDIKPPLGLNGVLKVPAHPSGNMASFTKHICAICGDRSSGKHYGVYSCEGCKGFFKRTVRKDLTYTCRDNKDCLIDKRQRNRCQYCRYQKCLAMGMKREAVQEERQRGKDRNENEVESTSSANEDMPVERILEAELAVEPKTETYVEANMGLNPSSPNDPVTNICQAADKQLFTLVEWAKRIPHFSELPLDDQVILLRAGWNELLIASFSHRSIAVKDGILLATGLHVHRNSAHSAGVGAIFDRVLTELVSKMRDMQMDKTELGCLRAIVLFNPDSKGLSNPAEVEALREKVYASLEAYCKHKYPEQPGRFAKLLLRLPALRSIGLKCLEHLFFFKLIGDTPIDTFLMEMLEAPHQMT
In words: In Vitro FXR Assay (TK): TK-ECRE-luc reporter in transfected CV-1 cells. Format: cell-based. As to conditions: 18 hrs, luminescence, maximum efficacy of <25% of the Fexarmine control classified as '+'. An outline of the steps:
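CV-1 cells transiently co-transfected with hFXR, hRXR, TK-ECRE-luc and pCMX-YFP plasmids in charcoal-stripped serum medium. Serially diluted compounds added, cells incubated 18 h at 37° C, then lysed and luminescence read.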
A word on the EC50: it is the concentration giving half of the maximal effect. Low readings indicate a more potent agent, high ones a less potent agent. For `COc1ccc([C@H]2CC[C@H](CN(c3cccc(-c4coc(C5CC5)n4)c3)C(=O)[C@H]3CC[C@H](CC(=O)O)CC3)CC2)cc1C#N` [Compound 21.05, 2-(trans-4-(((trans-4-(3-Cyano-4-methoxyphenyl)cyclohexyl)methyl)(3-(2-cyclopropyloxazol-4-yl)phenyl)carbamoyl)cyclohexyl)acetic acid], the EC50 is at most 250 nM.
The result for `CN(C)c1ccc([C@H]2CC[C@H](CN(c3cccc(-c4coc(C5CC5)n4)c3)C(=O)[C@H]3CC[C@H](CC(=O)O)CC3)CC2)cn1` [Compound 21.06, 2-(trans-4-((3-(2-Cyclopropyloxazol-4-yl)phenyl)((trans-4-(6-(dimethylamino)pyridin-3-yl)cyclohexyl)methyl)carbamoyl)cyclohexyl) acetic acid] reads at most 250 nM; that for `COc1ccc([C@H]2CC[C@H](CN(c3cc(-c4coc(C5CC5)n4)ccn3)C(=O)[C@H]3CC[C@H](CC(=O)O)CC3)CC2)nc1C` [Compound 21.07, 2-(trans-4-((4-(2-Cyclopropyloxazol-4-yl)pyridin-2-yl)((trans-4-(5-methoxy-6-methylpyridin-2-yl)cyclohexyl)methyl)carbamoyl)cyclohexyl) acetic acid], at most 250 nM; that for `COc1ccc([C@H]2CC[C@H](CN(c3cccc(-c4coc(C(C)C)n4)c3)C(=O)[C@H]3CC[C@H](CC(=O)O)CC3)CC2)cc1C` [Compound 21.08, 2-(trans-4-((3-(2-lsopropyloxazol-4-yl)phenyl)((trans-4-(4-methoxy-3-methylphenyl)cyclohexyl)methyl)carbamoyl)cyclohexyl)acetic acid], at most 250 nM.
The result for `COc1ccc([C@H]2CC[C@H](CN(c3cc(-c4coc(C(C)C)n4)ccn3)C(=O)[C@H]3CC[C@H](CC(=O)O)CC3)CC2)cc1C` [Compound 21.09, 2-(trans-4-((4-(2-Isopropyloxazol-4-yl)pyridin-2-yl)((trans-4-(4-methoxy-3-methylphenyl)cyclohexyl)methyl)carbamoyl)cyclohexyl)acetic acid] reads at most 250 nM; that for `COc1ccc([C@H]2CC[C@H](CN(c3cccc(-c4coc(C(C)C)n4)c3)C(=O)[C@H]3CC[C@H](CC(=O)O)CC3)CC2)cc1C#N` [Compound 21.10, 2-(trans-4-(((trans-4-(3-Cyano-4-methoxyphenyl)cyclohexyl)methyl)(3-(2-isopropyloxazol-4-yl)phenyl)carbamoyl)cyclohexyl)acetic acid], at most 250 nM.
In turn, `COc1ccc([C@H]2CC[C@H](CN(c3cc(-c4coc(C(C)C)n4)ccn3)C(=O)[C@H]3CC[C@H](CC(=O)O)CC3)CC2)cc1C#N` [Compound 21.11, 2-(trans-4-(((trans-4-(3-Cyano-4-methoxyphenyl)cyclohexyl)methyl)(4-(2-isopropyloxazol-4-yl)pyridin-2-yl)carbamoyl)cyclohexyl)acetic acid] returned an EC50 of at most 250 nM.
`COc1ccc([C@H]2CC[C@H](CN(c3cc(-c4coc(C5CC5)n4)ccn3)C(=O)[C@H]3CC[C@H](CC(=O)O)CC3)CC2)cc1C#N` [Compound 21.12, 2-(trans-4-(((trans-4-(3-Cyano-4-methoxyphenyl)cyclohexyl)methyl)(4-(2-cyclopropyloxazol-4-yl)pyridin-2-yl)carbamoyl)cyclohexyl)acetic acid] displayed an EC50 of at most 250 nM.
The result for `COc1ccc([C@H]2CC[C@H](CN(c3cccc(-c4coc(C5CC5)n4)c3)C(=O)[C@H]3CC[C@H](CC(=O)O)CC3)CC2)nc1C#N` [Compound 21.13, 2-(trans-4-(((trans-4-(6-Cyano-5-methoxypyridin-2-yl)cyclohexyl)methyl)(3-(2-cyclopropyloxazol-4-yl)phenyl)carbamoyl)cyclohexyl)acetic acid] reads at most 250 nM; that for `CCCOC(=O)[C@H]1CC[C@H](C(=O)N(C[C@H]2CC[C@H](c3ccc(OC)c(C)c3)CC2)c2cccc(-c3cnn(C4CC4)c3)c2)CC1` [Compound 22, trans-Propyl 4-((3-(1-cyclopropyl-1H-pyrazol-4-yl)phenyl)((trans-4-(4-methoxy-3-methylphenyl)cyclohexyl)methyl)carbamoyl)cyclohexanecarboxylate], at most 250 nM.
The result for `COc1ccc([C@H]2CC[C@H](CN(c3cccc(-c4cnn(C5CC5)c4)c3)C(=O)[C@H]3CC[C@H](C(=O)OC(C)C)CC3)CC2)cc1C` [Compound 22.01, trans-Isopropyl 4-((3-(1-cyclopropyl-1H-pyrazol-4-yl)phenyl)((trans-4-(4-methoxy-3-methylphenyl)cyclohexyl)methyl)carbamoyl) cyclohexanecarboxylate] reads at most 250 nM.
With `CCCCOC(=O)[C@H]1CC[C@H](C(=O)N(C[C@H]2CC[C@H](c3ccc(OC)c(C)c3)CC2)c2cccc(-c3cnn(C4CC4)c3)c2)CC1` [Compound 22.02, trans-Butyl 4-((3-(1-cyclopropyl-1H-pyrazol-4-yl)phenyl)((trans-4-(4-methoxy-3-methylphenyl)cyclohexyl)methyl)carbamoyl) cyclohexanecarboxylate], the EC50 was at most 250 nM.
In turn, `CCCCCOC(=O)[C@H]1CC[C@H](C(=O)N(C[C@H]2CC[C@H](c3ccc(OC)c(C)c3)CC2)c2cccc(-c3cnn(C4CC4)c3)c2)CC1` [Compound 22.03, trans-Pentyl 4-((3-(1-cyclopropyl-1H-pyrazol-4-yl)phenyl)((trans-4-(4-methoxy-3-methylphenyl)cyclohexyl)methyl)carbamoyl) cyclohexanecarboxylate] registered an EC50 of at least 1000 nM.
The result for `COc1ccc([C@H]2CC[C@H](CN(c3cccc(-c4cnn(C5CC5)c4)c3)C(=O)[C@H]3CC[C@H](C(=O)OCC(C)C)CC3)CC2)cc1C` [Compound 22.04, trans-Isobutyl 4-((3-(1-cyclopropyl-1H-pyrazol-4-yl)phenyl)((trans-4-(4-methoxy-3-methylphenyl)cyclohexyl)methyl)carbamoyl) cyclohexanecarboxylate] reads at most 250 nM; that for `COc1ccc([C@H]2CC[C@H](CN(c3cccc(-c4cnn(C5CC5)c4)c3)C(=O)[C@H]3CC[C@H](C(=O)OCCC(C)C)CC3)CC2)cc1C` [Compound 22.05, trans-Isopentyl 4-((3-(1-cyclopropyl-1H-pyrazol-4-yl)phenyl)((trans-4-(4-methoxy-3-methylphenyl)cyclohexyl)methyl)carbamoyl) cyclohexanecarboxylate], 250 to 1000 nM.
The result for `CCCOC(=O)[C@H]1CC[C@H](C(=O)N(C[C@H]2CC[C@H](c3ccc(OC)c(C)n3)CC2)c2cc(-c3cnn(C4CC4)c3)ccn2)CC1` [Compound 22.06, trans-Propyl 4-((4-(1-cyclopropyl-1H-pyrazol-4-yl)pyridin-2-yl)((trans-4-(5-methoxy-6-methylpyridin-2-yl)cyclohexyl)methyl)carbamoyl) cyclohexanecarboxylate] reads 250 to 1000 nM; that for `COc1ccc([C@H]2CC[C@H](CN(c3cccc(-c4cnn(C5CC5)c4)c3)C(=O)[C@H]3CC[C@H](C(=O)NCCO)CC3)CC2)cc1C` [Compound 23, trans-N^1-(3-(1-Cyclopropyl-1H-pyrazol-4-yl)phenyl)-N^4-(2-hydroxyethyl)-N^1-((trans-4-(4-methoxy-3-methylphenyl)cyclohexyl)methyl)cyclohexane-1,4-dicarboxamide], 250 to 1000 nM.
The result for `CNC(=O)[C@H]1CC[C@H](C(=O)N(C[C@H]2CC[C@H](c3ccc(OC)c(C)c3)CC2)c2cccc(-c3cnc(OC)s3)c2)CC1` [Compound 24, trans-N^1-((trans-4-(4-Methoxy-3-methylphenyl)cyclohexyl)methyl)-N^1-(3-(2-methoxythiazol-5-yl)phenyl)-M-methylcyclohexane-1,4-dicarboxamide] reads at most 250 nM; that for `COc1ncc(-c2cccc(N(C[C@H]3CC[C@H](c4ccc(OC)c(C)c4)CC3)C(=O)[C@H]3CC[C@H](C(N)=O)CC3)c2)s1` [Compound 24.01, trans-N^1-((trans-4-(4-Methoxy-3-methylphenyl)cyclohexyl)methyl)-N^1-(3-(2-methoxythiazol-5-yl)phenyl)cyclohexane-1,4-dicarboxamide], at most 250 nM.
Consider `COc1ncc(-c2cccc(N(C[C@H]3CC[C@H](c4ccc(OC)c(C)c4)CC3)C(=O)[C@H]3CC[C@H](C(=O)N(C)C)CC3)c2)s1` [Compound 24.02, trans-N^1-((trans-4-(4-Methoxy-3-methylphenyl)cyclohexyl)methyl)-N^1-(3-(2-methoxythiazol-5-yl)phenyl)-N^4,N^4-dimethylcyclohexane-1,4-dicarboxamide], for which the EC50 was at most 250 nM.
The compound `COc1ncc(-c2cccc(N(C[C@H]3CC[C@H](c4ccc(OC)c(C)c4)CC3)C(=O)[C@H]3CC[C@H](C(=O)NCCO)CC3)c2)s1` [Compound 24.03] yielded an EC50 of at most 250 nM.

The values above are taken from patent US20220089575A1, “FARNESOID X RECEPTOR AGONISTS AND USES THEREOF” (Metacrine, Inc., priority 2017, published 2022).
